Earlier results, collected in PMC4191344, “Identification and characterization of Aβ peptide interactors in Alzheimer’s disease by structural approaches” (Frontiers in Aging Neuroscience, 2014).

Test system: Aβ
Conditions: in vitro; ref Pollio et al., 2008
Source text: Early literature was somewhat conflicting explicating the role of the EP24.15 metalloenzyme in the etiology of AD. This enzyme was originally erroneously thought to be the β-secretase activity initiating the processing of the APP into Aβ (Papastoitsis et al., [1994]) prior to the discovery of the beta amyloid cleaving enzyme-1 (BACE-1). The EP24.15 gene is located at a chromosomal locus that is close to a region involved with early onset AD (Meckelein et al., [1996]). […] In older transgenic animals, EP24.15 protein was increased in the hippocampus, supportive of a role in Aβ clearance though there was no attributable mechanism.

Substance: EP24.15: soluble, 77 kD metalloendopeptidase in the family of zinc metallopeptidases
- inhibition of Aβ toxicity by EP24.15 expression: inhibit the toxicity of Aβ in vitro
